# Columns and labels:
# solubility (qualitative) = type: physicochemical; conditions: CF3 next to aniline, difficulties in forming salt
# hA2A receptors = molecular target: T1, hA2A receptors (Homo sapiens, UniProt P29274); experiment: radioligand binding to human A2A receptors, HEK-293 membranes; conditions: average of duplicate experiments
# T1 construct: purchased PerkinElmer RBHA2AM
# Description: The binding affinities of synthesized compounds to human A2A receptors (hA2AR) were measured by assessing competitive binding of ligands to radioligand […] using membrane preparations of human recombinant HEK-293 cells expressing human A2A receptors.
# The radioligand-binding assays for adenosine receptors were performed at Eurofins Discovery Services (Panlabs, Taiwan). Briefly, stock solutions of the compounds were prepared in DMSO and further diluted with the incubation buffer to the desired concentration. Final DMSO concentrations in the assay were 1.0%. […] Nonspecific binding was estimated in the presence of 100 μM R(-)-PIA. Membranes were filtered and washed 3 times and the filters were counted to determine specifically bound [^3H]DPCPX. Chemical compounds were screened at 10 μM. […] Nonspecific binding was estimated in the presence of 50.0 μM NECA. […] Nonspecific binding was estimated in the presence of 100 μM NECA. Membranes were filtered and washed 3 times and the filters were counted to determine [^3H]MRS1754 specifically bound. […] Nonspecific binding was estimated in the presence of 1.0 μM IB-MECA.
# IC50 values were determined by a nonlinear, least-squares regression analysis using MathIQ^TM (ID Business Solutions Ltd., Guildford, UK). […] The Hill coefficient (nH), which defines the slope of the competitive binding curve, was calculated using MathIQ^TM.
# hA1 receptor = molecular target: T2, hA1 receptor (Homo sapiens, UniProt P30542); experiment: radioligand binding to human A1 receptors, CHO-K1 membranes, [3H]DPCPX; conditions: average of duplicate experiments
# T2 sequence (P30542 1-326): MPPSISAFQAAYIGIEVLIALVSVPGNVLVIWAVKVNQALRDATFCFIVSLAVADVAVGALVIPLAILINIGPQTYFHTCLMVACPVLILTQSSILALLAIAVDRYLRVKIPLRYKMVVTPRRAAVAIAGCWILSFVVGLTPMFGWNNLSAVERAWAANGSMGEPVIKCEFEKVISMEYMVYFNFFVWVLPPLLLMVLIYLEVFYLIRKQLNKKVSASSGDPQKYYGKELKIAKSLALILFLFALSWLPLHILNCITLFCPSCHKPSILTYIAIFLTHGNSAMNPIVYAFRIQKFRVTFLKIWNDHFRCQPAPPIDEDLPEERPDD
# Description: The radioligand-binding assays for adenosine receptors were performed at Eurofins Discovery Services (Panlabs, Taiwan). Briefly, stock solutions of the compounds were prepared in DMSO and further diluted with the incubation buffer to the desired concentration. Final DMSO concentrations in the assay were 1.0%. For adenosine A1 screening, a 10 μg aliquots of membrane preparations from human recombinant CHO-K1 cells stably expressing A1 receptors (CHO-K1-hA1AR clone3, EPDST, R200510) were incubated with 1 nM [^3H]DPCPX in incubation buffer (20 mM HEPES, pH 7.4, 10 mM MgCl2, 100 mM NaCl 1.40 nM) for 90 min at 25 °C. Nonspecific binding was estimated in the presence of 100 μM R(-)-PIA. Membranes were filtered and washed 3 times and the filters were counted to determine specifically bound [^3H]DPCPX. Chemical compounds were screened at 10 μM. For A2A screening, membrane preparations from human recombinant HEK-293 cells stably expressing A2A receptors (PerkinElmer, RBHA2AM) were incubated with 0.05 μM [^3H]CGS-21680 in incubation buffer (50 mM Tris-HCl, pH 7.4, 10 mM MgCl2, 1 mM EDTA, 2 U/mL Adenosine Deaminase) for 90 min at 25 °C. Nonspecific binding was estimated in the presence of 50.0 μM NECA. Membranes were filtered and washed 3 times and the filters were counted to determine [^3H]CGS-21680 specifically bound. For A2B screening, membrane preparations from human recombinant HEK-293 cells stably expressing A2B receptors (PerkinElmer, ES-013-M) were incubated with 1.6 nM [^3H]MRS1754 in incubation buffer (50 mM Tris-HCl, pH 6.5, 5 mM MgCl2, 1 mM EDTA, 0.01 % Bacitracin) for 90 min at 25 °C. Nonspecific binding was estimated in the presence of 100 μM NECA. Membranes were filtered and washed 3 times and the filters were counted to determine [^3H]MRS1754 specifically bound. For A3 screening, membrane preparations from human recombinant CHO-K1 cells stably expressing A3 receptors (PerkinElmer, ES-012-M) were incubated with 0.5 nM [^125I]AB-MECA in incubation buffer (25 mM HEPES, pH 7.4, 5 mM MgCl2, 1 mM CaCl2, 0.1 % BSA) for 60 min at 25 °C. Nonspecific binding was estimated in the presence of 1.0 μM IB-MECA.
# IC50 values were determined by a nonlinear, least-squares regression analysis using MathIQ^TM (ID Business Solutions Ltd., Guildford, UK). Where inhibition constants (Ki) were presented, the Ki values were calculated using Cheng and Prusoff equation [18] using the observed IC50 of the compound, the concentration of radioligand employed in the assay, and the historical values for the KD of the ligand (obtained experimentally at Eurofins Panlabs, Inc.). The Hill coefficient (nH), which defines the slope of the competitive binding curve, was calculated using MathIQ^TM.
# [1] = metabolic stability in cryopreserved mouse hepatocytes
# Description: (§1) Metabolic stability of 11o was determined in cryopreserved hepatocytes from mice, rats, dogs, monkeys and human according to the SOPs of Frontage Laboratories Inc. Briefly, cryopreserved hepatocytes for pre-clinical animals and for human (BioIVT, Westbury, NY, USA) were thawed in a 37 °C water bath with gentle shaking until ice had almost melted. The suspensions were immediately transferred to a centrifuge tube (50 mL) containing pre-warmed thawing media at 37 °C with gentle handshaking to prevent the cells from settling. Cell suspensions were centrifuged at 50× g and 4 °C for 5 min. The supernatant was discarded and the pellets were resuspended in prewarmed incubation media (5 mL) at 37 °C. The percentage of viable cells in the suspension was determined by Trypan blue staining method to ensure viability of ≥70 %. […] The samples were centrifuged and aliquots of the supernatant were analyzed for parent compounds by LC/MS/MS using suitable multiple reaction monitoring (MRM) transitions. […] The disappearance of 11o and midazolam was monitored by LC/MS/MS (MRM) analysis of the hepatocyte extracts at each time point. The peak area ratio of the analyte to internal standard was obtained for each sample and the rate of disappearance of 11o was assessed by comparing the peak area ratios at various time points to the peak area ratio obtained at t = 0. The t1/2 is obtained (using the linear portion of semi-log plot of the area ratio vs. time) and the CLint values determined using well-stirred model.
# [2] = metabolic stability in cryopreserved rat hepatocytes
# Description: as §1
# [3] = metabolic stability in cryopreserved monkey hepatocytes
# Description: as §1
# [4] = metabolic stability in cryopreserved human hepatocytes
# Description: as §1
# [5] = metabolic stability in cryopreserved dog hepatocytes
# Description: as §1
# T1 sequence (P29274 whole entry): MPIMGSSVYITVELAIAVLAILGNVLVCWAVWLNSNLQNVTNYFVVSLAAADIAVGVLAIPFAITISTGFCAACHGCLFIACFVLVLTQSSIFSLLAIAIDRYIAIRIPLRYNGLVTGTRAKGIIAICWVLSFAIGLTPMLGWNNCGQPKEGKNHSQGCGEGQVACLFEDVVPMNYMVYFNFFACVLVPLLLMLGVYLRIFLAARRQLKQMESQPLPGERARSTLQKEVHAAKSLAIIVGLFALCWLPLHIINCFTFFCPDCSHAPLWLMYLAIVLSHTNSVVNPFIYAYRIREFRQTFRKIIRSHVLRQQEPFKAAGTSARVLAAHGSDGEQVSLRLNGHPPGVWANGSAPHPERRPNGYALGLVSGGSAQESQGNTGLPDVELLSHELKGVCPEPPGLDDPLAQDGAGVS
smiles,measurement,setting,value
"N#Cc1cccc(-c2nc(N)nc3c2cnn3Cc2ccc(N)c(C(F)(F)F)c2)c1F [11x, 3-(6-Amino-1-(4-amino-3-(trifluoromethyl)benzyl)-1H-pyrazolo[3,4-d]pyrimidin-4-yl)-2-fluorobenzonitrile]",solubility (in words),solubility (qualitative),greatly reduced solubility
same,Ki,hA2A receptors,2.71 nM
same,Ki,hA1 receptor,33 nM
"Cc1ncc2n1-c1ccc(Cl)cc1C(c1ccccc1F)=NC2 [Midazolam, reference compound]",half-life at 0.2 μM,"[1]; CD-1, mouse, hepatocytes",49.9 min
same,Intrinsic Clearance,"[1]; mouse hepatocytes, midazolam 0.2 μM",0.0139 mL/min/10^6 Cells
same,half-life at 0.2 μM,"[2]; Sprague Dawley, rat, hepatocytes",21.9 min
same,Intrinsic Clearance,"[2]; rat hepatocytes, midazolam 0.2 μM",0.0317 mL/min/10^6 Cells
same,Intrinsic Clearance,"[3]; monkey hepatocytes, midazolam 0.2 μM",0.0192 mL/min/10^6 Cells
same,half-life at 0.2 μM,"[3]; monkey, hepatocytes",36 min
same,Intrinsic Clearance,"[4]; human hepatocytes, midazolam 0.2 μM",0.0101 mL/min/10^6 Cells
same,half-life at 0.2 μM,"[4]; human, hepatocytes",68.3 min
same,half-life at 0.2 μM,"[5]; beagle, dog, hepatocytes",32.8 min
same,Intrinsic Clearance,"[5]; dog hepatocytes, midazolam 0.2 μM",0.0211 mL/min/10^6 Cells
